Where “and” joins values, the source holds several entries; their conditions need not be identical. Equal entries are not always repeated. Marks after values point to notes of the source that are not given here.
What was measured:
[1] = Biodistribution in DU-145 tumor-bearing mice; format: in vivo; settings: i.v., mean (SD)
Experimental: (+)-^131I]pIV was prepared using a method described previously. To produce tumors, approximately 5 × 10^6 of the prepared DU-145 cells was injected subcutaneously into the right dorsum of 4-week-old male BALB/c nude mice (15 to 19 g, Japan SLC, Inc.). Biodistribution experiments were performed at approximately 14- to 21-day post-inoculation, i.e., when tumors reached a palpable size. Groups of four mice were intravenously administered with 100 μL of a mixed solution of (+)-^125I]IV-OH (37 kBq) and (+)-^131I]pIV (37 kBq). At 10-min, 1-, 3-, and 24-h post-injections, the mice were killed. Tissues of interest were removed and weighed, and radioactivity counts were determined with an auto well gamma counter and corrected for background radiation. A window from 16 to 71 keV was used for measuring ^125I and one from 300 to 433 keV for ^131I. The crossover of ^125I activity into the ^131I channel was negligible. Correlation factors to eliminate any crossover of ^131I activity into ^125I were determined by measuring the ^131I standard in both windows.

[2] = tested on: DU-145 prostate cancer cell lines; test: Cellular uptake and washout experiments in vitro; format: cell-based; settings: DU-145 cells
Experimental: Radiotracer uptake studies were performed in monolayer cultures of DU-145 prostate cancer cell lines, which were obtained from ATCC (Manassas, VA, USA). Cells were grown in cell culture dishes in RPMI 1640 medium with phenol red, 10% heat-inactivated fetal bovine serum (FBS), 100-μg/mL glutamine, 100-units/mL penicillin, and 100-μg/mL streptomycin at 37°C in a humidified atmosphere of 95% air and 5% carbon dioxide. Cells were plated on 6-well tissue culture plates (4 × 10^5 cells/well) for 24 h before the study and incubated at 37°C in the culture medium without FBS containing (+)-^125I]IV-OH or (+)-^125I]pIV (3.7 kBq/well), which was prepared by a method of a previous study for different time intervals (15, 30, 60, and 120 min). For the washout experiment, tumor cells exposed to a medium containing (+)-^125I]IV-OH or (+)-^125I]pIV for 60 min were washed with phosphate buffered saline (PBS) and incubated in fresh (nonradioactive) medium without FBS at 37°C for 15, 30, and 60 min. […] After incubation, cells were washed twice with ice-cold PBS and resolved by adding 0.5 mL of 1-M NaOH. The solutions were then collected and the radioactivity was determined with an auto well gamma counter (ARC-380; Aloka) and corrected for background radiation. The radioactivity of each sample was normalized for the protein level, which was determined using a Protein Assay Bicinchoninate Kit (Nacalai Tesque).

[3] = Metabolite analysis in blood, tumor and other tissues (TLC); format: in vivo, mice; settings: i.v., mean (SD) three samples
Experimental: For metabolite analysis, the above-mentioned DU-145 tumor-bearing mice were intravenously administered with 100 μL of (+)-[^125I]IV-OH (3.7 MBq). At 10-min and 1-h post-injections, the mice were killed. Blood was collected and tissues of interest were removed. The blood was centrifuged at 1,000×g for 10 min at 4°C. After the plasma was collected, an equivalent volume of acetonitrile/water mixture (1:1) was added to the plasma. The mixture was centrifuged at 1,000×g for 10 min at 4°C. The tissues of interest (0.2 to 0.5 g) were homogenized in 1 mL of acetonitrile-water mixture (1:1). Each homogenized sample was centrifuged at 1,000×g for 10 min at 4°C. The supernatants were analyzed by TLC with a chloroform/methanol mixture (5:1) as a developing solvent. TLC plates were exposed to phosphor imaging plates (BAS IP SR 2025 E, Fujifilm, Tokyo, Japan) for 48 h. The exposed imaging plates were evaluated using an imaging scanner (BAS 5000 Bio-Imaging Analyzer, Fujifilm).

[4] = Partition coefficient (1-octanol / 0.02-M phosphate buffer); format: physicochemical
Experimental: The partition coefficient of (+)-^125I]IV-OH was measured as described previously.

Oc1ccc(C2CCN(C3CCCCC3O)CC2)cc1[125I] (single isomer, unassigned; (+)) [(+)-[^125I]IV-OH]
Biodistribution of radioactivity, Blood ([1]; 10 min post-injection): 1.28 (0.13)* percent injected dose per gram tissue | Biodistribution of radioactivity, Blood ([1]; 1 h post-injection): 1.04 (0.10)* percent injected dose per gram tissue | Biodistribution of radioactivity, Blood ([1]; 3 h post-injection): 0.43 (0.09)** percent injected dose per gram tissue | Biodistribution of radioactivity, Blood ([1]; 24 h post-injection): 0.00 (0.00)* percent injected dose per gram tissue | Biodistribution of radioactivity, Brain ([1]; 10 min post-injection): 5.14 (0.50)* percent injected dose per gram tissue | Biodistribution of radioactivity, Brain ([1]; 1 h post-injection): 1.04 (0.08)* percent injected dose per gram tissue | Biodistribution of radioactivity, Brain ([1]; 3 h post-injection): 0.22 (0.02)* percent injected dose per gram tissue | Biodistribution of radioactivity, Brain ([1]; 24 h post-injection): 0.00 (0.00)* percent injected dose per gram tissue | Biodistribution of radioactivity, Heart ([1]; 10 min post-injection): 3.57 (0.40)* percent injected dose per gram tissue | Biodistribution of radioactivity, Heart ([1]; 1 h post-injection): 0.78 (0.05)* percent injected dose per gram tissue | Biodistribution of radioactivity, Heart ([1]; 3 h post-injection): 0.27(0.00)** percent injected dose per gram tissue | Biodistribution of radioactivity, Heart ([1]; 24 h post-injection): 0.01 (0.01)* percent injected dose per gram tissue | Biodistribution of radioactivity, Intestine ([1]; 10 min post-injection): 5.26 (0.61)* percent injected dose per gram tissue | Biodistribution of radioactivity, Intestine ([1]; 1 h post-injection): 7.96 (0.72)* percent injected dose per gram tissue | Biodistribution of radioactivity, Intestine ([1]; 3 h post-injection): 4.84 (0.95) percent injected dose per gram tissue | Biodistribution of radioactivity, Intestine ([1]; 24 h post-injection): 0.14 (0.02)* percent injected dose per gram tissue | Biodistribution of radioactivity, Kidney ([1]; 10 min post-injection): 35.01 (2.83)* percent injected dose per gram tissue | Biodistribution of radioactivity, Kidney ([1]; 1 h post-injection): 15.30 (1.80) percent injected dose per gram tissue | Biodistribution of radioactivity, Kidney ([1]; 3 h post-injection): 4.89 (0.87)** percent injected dose per gram tissue | Biodistribution of radioactivity, Kidney ([1]; 24 h post-injection): 0.04 (0.01)* percent injected dose per gram tissue | Biodistribution of radioactivity, Liver ([1]; 10 min post-injection): 7.82 (0.32)* percent injected dose per gram tissue | Biodistribution of radioactivity, Liver ([1]; 1 h post-injection): 9.80 (0.94)** percent injected dose per gram tissue | Biodistribution of radioactivity, Liver ([1]; 3 h post-injection): 2.81 (0.33)* percent injected dose per gram tissue | Biodistribution of radioactivity, Liver ([1]; 24 h post-injection): 0.06 (0.03)* percent injected dose per gram tissue | Biodistribution of radioactivity, Lung ([1]; 10 min post-injection): 9.74 (1.59)* percent injected dose per gram tissue | Biodistribution of radioactivity, Lung ([1]; 1 h post-injection): 1.85 (0.18)* percent injected dose per gram tissue | Biodistribution of radioactivity, Lung ([1]; 3 h post-injection): 0.63 (0.11)* percent injected dose per gram tissue | Biodistribution of radioactivity, Lung ([1]; 24 h post-injection): 0.01 (0.02)* percent injected dose per gram tissue | Biodistribution of radioactivity, Muscle ([1]; 10 min post-injection): 2.20 (0.58) percent injected dose per gram tissue | Biodistribution of radioactivity, Muscle ([1]; 1 h post-injection): 0.45 (0.03)* percent injected dose per gram tissue | Biodistribution of radioactivity, Muscle ([1]; 3 h post-injection): 0.26 (0.10) percent injected dose per gram tissue | Biodistribution of radioactivity, Muscle ([1]; 24 h post-injection): 0.01 (0.01)* percent injected dose per gram tissue | Biodistribution of radioactivity, Pancreas ([1]; 10 min post-injection): 25.04 (2.40)* percent injected dose per gram tissue | Biodistribution of radioactivity, Pancreas ([1]; 1 h post-injection): 12.80 (0.97)* percent injected dose per gram tissue | Biodistribution of radioactivity, Pancreas ([1]; 3 h post-injection): 2.94 (0.49)* percent injected dose per gram tissue | Biodistribution of radioactivity, Pancreas ([1]; 24 h post-injection): 0.01 (0.01)* percent injected dose per gram tissue | Biodistribution of radioactivity, Spleen ([1]; 10 min post-injection): 8.11 (1.24) percent injected dose per gram tissue | Biodistribution of radioactivity, Spleen ([1]; 1 h post-injection): 1.84 (0.11)* percent injected dose per gram tissue | Biodistribution of radioactivity, Spleen ([1]; 3 h post-injection): 0.60 (0.12)* percent injected dose per gram tissue | Biodistribution of radioactivity, Spleen ([1]; 24 h post-injection): 0.01 (0.02)* percent injected dose per gram tissue | Biodistribution of radioactivity, Stomach ([1]; 10 min post-injection): 1.18 (0.36) percent injected dose | Biodistribution of radioactivity, Stomach ([1]; 1 h post-injection): 0.62 (0.18) percent injected dose | Biodistribution of radioactivity, Stomach ([1]; 3 h post-injection): 0.55 (0.25) percent injected dose | Biodistribution of radioactivity, Stomach ([1]; 24 h post-injection): 0.03 (0.02)* percent injected dose | Biodistribution of radioactivity, Tumor ([1]; 10 min post-injection): 9.55 (0.64)** percent injected dose per gram tissue | Biodistribution of radioactivity, Tumor ([1]; 1 h post-injection): 5.45 (0.70) percent injected dose per gram tissue | Biodistribution of radioactivity, Tumor ([1]; 3 h post-injection): 2.57 (0.41) percent injected dose per gram tissue | Biodistribution of radioactivity, Tumor ([1]; 24 h post-injection): 0.06 (0.04)** percent injected dose per gram tissue | time at which uptake was saturated [2]: 30 min | accumulation in the presence of haloperidol ([2]; haloperidol 10 μM in culture medium): remarkably lessened | intracellular radioactivity released into the supernatant ([2]; within 60 min after medium replacement, specific uptake): Approximately 71% | percent of intact (+)-[^125I]IV-OH, Blood ([3]; 10 min post-injection): 17.0 (9.0) percent | percent of intact (+)-[^125I]IV-OH, Blood ([3]; 1 h post-injection): 0.9% and 0.9 (1.0) percent | percent of intact (+)-[^125I]IV-OH, Brain ([3]; 10 min post-injection): 96.4 (1.1) percent | percent of intact (+)-[^125I]IV-OH, Brain ([3]; 1 h post-injection): 73.7 (8.4) percent | percent of intact (+)-[^125I]IV-OH, Kidney ([3]; 10 min post-injection): 19.8 (3.7) percent | percent of intact (+)-[^125I]IV-OH, Kidney ([3]; 1 h post-injection): 2.6% and 2.6 (1.8) percent | percent of intact (+)-[^125I]IV-OH, Liver ([3]; 10 min post-injection): 5.4 (7.4) percent | percent of intact (+)-[^125I]IV-OH, Liver ([3]; 1 h post-injection): 0.1% and 0.1 (0.2) percent | percent of intact (+)-[^125I]IV-OH, Tumor ([3]; 10 min post-injection): 93.1 (4.3) percent | percent of intact (+)-[^125I]IV-OH, Tumor ([3]; 1 h post-injection): 70.2 (5.6) percent | log P [4]: 1.13 ± 0.01

Reference: article PMC3524758, “Development and evaluation of a novel radioiodinated vesamicol analog as a sigma receptor imaging agent” (EJNMMI Research, 2012)
